Results from patent publication EP0429304A2, “Pyridone-carboxylic acid derivatives and their use as veterinary medicines” (SHIONOGI SEIYAKU KABUSHIKI KAISHA trading under the name of …, priority 1989, dated 1991).
Like-named read-outs stand apart in the source and are kept apart here.

Experiments:
[1] = tested on: TS-resistant strain of MG; format: in vivo, chicken; conditions: for Infectious index Left air sack + / Infectious index Left air sack ++ / Infectious index Left air sack +++ / Infectious index Left air sack - / Infectious index Right air sack + / Infectious index Right air sack ++ / Infectious index Right air sack +++ / Infectious index Right air sack -: count of fowl; for Infectious index Left air sack + / Infectious index Left air sack ++ / Infectious index Left air sack +++ / Infectious index Left air sack - / Infectious index Right air sack + / Infectious index Right air sack ++ / Infectious index Right air sack +++ / Infectious index Right air sack - / Number of fowl having air sack lesions / Number of infected fowl/Number of fowl tested: 9-days chicken; for antimicrobial activity compared with ERFX: in vivo, po; for Number of infected fowl/Number of fowl tested: 3.5 x 10³ CFU/fowl
[2] = tested on: Mycoplasma gallisepticum (MG) S6; test: In vitro sensitivity test (liquid dilution method); format: cell-based; conditions: 37°C, 7 days
Procedure: (§1) Survey of the sensitivity of the compound (I) to various strains of microorganisms was performed by a liquid dilution method […] an agar dilution method, in which the bacteria used were of animal origin and included the following strains (15 strains out of 11 bacteria): Chicken-origin strain: Mycoplasma gallisepticum (MG), Mycoplasma synoviae (MS), Hemophilus paragallinarum (H.pg) and Escherichia coli (E.coli); Pig-origin strain: Mycoplasma hyopneumoniae (Mh), Hemophilus pleuropneumonia (H.pp) and Bordetella bronchiseptica (B.br); Fish-origin strain: Pasteurella piscicida (P.pis) and Streptococcus sp (Str.sp); others: Escherichia coli (E. coli), Salmonella typhimurium (S.typhi) and Staphylococcus aureus (S.au).
(§2) Of these bacteria, the strains belonging to MG, MS and Mh were cultured at 37°C for 7 days by a liquid dilution method, of which the culture medium comprised: 12 % horse-serum added "PPLO" (agar manufactured by Difco) medium for MG; 12 % pig-serum, 0.01 % βNAD (nicotinamide adenine dinucleotide) added Frey medium for MS; 0.5 % lactoalbumin added Hank's solution, 10 % horse-serum, 0.5 % yeast extract (25 %) for Mh, and the agar dilution method was applied to the strains belonging to H.pg, H.pp, S.typhi, E.coli, S.au and B.br. Specifically, the H.pg strain was cultured in a 5 % chicken-serum added chicken bouillon medium and the H.pp strain was cultured in a heart infusion agar added with 10 % sheep defibered blood and 0.05 % βNAD. In case of the H.pg and P.pp strains, observation was made after cultivation at 37°C for 20 hours under 10 % CO₂. Mueller Hinton agar (Difco) was used for the strains belonging to S.typhi, E.coli, S.au and B.br, and observation was made after cultivation at 37°C for 20 to 24 hours. P.pis and Str.sp, both being of fish-origin, were respectively cultured at 25°C for 40 to 48 hours in a 1.5 % NaCl added heart infusion agar and in a sensitive disk medium.

[3] = tested on: Mycoplasma hyopneumoniae (Mh) ST-11; test: In vitro sensitivity test (liquid dilution method); format: cell-based; conditions: 37°C, 7 days
Procedure: as §1, §2

[4] = tested on: Streptococcus sp (Str.sp) SNO6119; test: In vitro sensitivity test; format: cell-based; conditions: 25°C, 40 to 48 hours
Procedure: as §1, §2

[5] = tested on: Pasteurella piscicida (P.pis) No. 2; test: In vitro sensitivity test; format: cell-based; conditions: 25°C, 40 to 48 hours
Procedure: as §1, §2

[6] = tested on: Bordetella bronchiseptica (B.br) ABU-1; test: In vitro sensitivity test (agar dilution method); format: cell-based; conditions: 37°C, 20 to 24 hours
Procedure: as §1, §2

[7] = tested on: Escherichia coli (E.coli) E-17, chicken-origin strain isolated from the field; test: In vitro sensitivity test (agar dilution method); format: cell-based; conditions: 37°C, 20 to 24 hours
Procedure: as §1, §2

[8] = tested on: Hemophilus paragallinarum (H.pg) 221; test: In vitro sensitivity test (agar dilution method); format: cell-based; conditions: agar dilution, 37°C, 20 hours, 10 % CO₂
Procedure: as §1, §2

[9] = tested on: Escherichia coli (E.coli) JC-2; test: In vitro sensitivity test (agar dilution method); format: cell-based; conditions: 37°C, 20 to 24 hours
Procedure: as §1, §2

[10] = tested on: Salmonella typhimurium (S.typhi) 13311; test: In vitro sensitivity test (agar dilution method); format: cell-based; conditions: 37°C, 20 to 24 hours
Procedure: as §1, §2

[11] = tested on: Hemophilus pleuropneumonia (H.pp) M-1; test: In vitro sensitivity test (agar dilution method); format: cell-based; conditions: 37°C, 20 hours, 10 % CO₂
Procedure: as §1, §2

[12] = tested on: Staphylococcus aureus (S.au) 209P; test: In vitro sensitivity test (agar dilution method); format: cell-based; conditions: 37°C, 20 to 24 hours
Procedure: as §1, §2

[13] = tested on: Hemophilus paragallinarum (H.pg) S-1; test: In vitro sensitivity test (agar dilution method); format: cell-based; conditions: agar dilution, 37°C, 20 hours, 10 % CO₂
Procedure: as §1, §2

TS-resistant MG = test: Experimental MG infection to chicken, through bait; format: in vivo; conditions: 9-days chicken, 6.6 x 10³ CFU/fowl, dissection 6th day after inoculation
[14] = oral 1.56 mg/kg, 2.2 x 10³ CFU/fowl
[15] = oral 6.25 mg/kg, 2.2 x 10³ CFU/fowl
[16] = oral 12.5 mg/kg, 2.2 x 10³ CFU/fowl
[17] = oral 25.0 mg/kg, 2.2 x 10³ CFU/fowl
[18] = oral 6.25 mg/kg, 1.7 x 10³ CFU/fowl
[19] = oral 12.5 mg/kg, 1.7 x 10³ CFU/fowl
[20] = oral 25.0 mg/kg, 1.7 x 10³ CFU/fowl

SMILES: CNC[C@@]12CCC[C@@H]1CN(c1c(Cl)cc3c(=O)c(C(=O)O)cn(C4CC4)c3c1Cl)C2.Cl (relative stereo) [I-10, 7-[(1R*,5S*)-1-methylaminomethyl-3-azabicyclo[3.3.0]octan-3-yl]-1-cyclopropyl-6,8-dichloro-1,4-dihydro-4-oxo-3-quinoline carboxylic acid hydrochloride]
- Infectious index Left air sack + [1, 14]: 0
- Infectious index Left air sack ++ [1, 14]: 0
- Infectious index Left air sack +++ [1, 14]: 0
- Infectious index Left air sack - [1, 14]: 4
- Infectious index Right air sack + [1, 14]: 2
- Infectious index Right air sack ++ [1, 14]: 0
- Infectious index Right air sack +++ [1, 14]: 1
- Infectious index Right air sack - [1, 14]: 1
- Infectious index Left air sack + [1, 15]: 1
- Infectious index Left air sack ++ [1, 15]: 0
- Infectious index Left air sack +++ [1, 15]: 0
- Infectious index Left air sack - [1, 15]: 4
- Infectious index Right air sack + [1, 15]: 2
- Infectious index Right air sack ++ [1, 15]: 2
- Infectious index Right air sack +++ [1, 15]: 0
- Infectious index Right air sack - [1, 15]: 1
- Infectious index Left air sack + [1, 16]: 0
- Infectious index Left air sack ++ [1, 16]: 0
- Infectious index Left air sack +++ [1, 16]: 0
- Infectious index Left air sack - [1, 16]: 5
- Infectious index Right air sack + [1, 16]: 0
- Infectious index Right air sack ++ [1, 16]: 0
- Infectious index Right air sack +++ [1, 16]: 0
- Infectious index Right air sack - [1, 16]: 5
- Infectious index Left air sack + [1, 17]: 0
- Infectious index Left air sack ++ [1, 17]: 0
- Infectious index Left air sack +++ [1, 17]: 0
- Infectious index Left air sack - [1, 17]: 5
- Infectious index Right air sack + [1, 17]: 0
- Infectious index Right air sack ++ [1, 17]: 0
- Infectious index Right air sack +++ [1, 17]: 0
- Infectious index Right air sack - [1, 17]: 5
- Number of fowl having air sack lesions [1, 14]: 3
- Number of fowl having air sack lesions [1, 15]: 4
- Number of fowl having air sack lesions [1, 16]: 0
- Number of fowl having air sack lesions [1, 17]: 0
- In vitro Sensitivity Test MG S6 [2]: 0.00625 µg/mL
- In vitro Sensitivity Test Mh ST-11 [3]: 0.05 µg/mL
- In vitro Sensitivity Test Str.sp SNO6119 [4]: 0.78 µg/mL
- In vitro Sensitivity Test P.pis No. 2 [5]: 1.56 µg/mL
- In vitro Sensitivity Test B.br ABU-1 [6]: 12.5 µg/mL
- In vitro Sensitivity Test E.coli E-17 [7]: 0.39 µg/ml
- In vitro Sensitivity Test H.pg 221 [8]: 0.78 µg/mL
- In vitro Sensitivity Test E.coli JC-2 [9]: 0.78 µg/mL
- In vitro Sensitivity Test S.typhi 13311 [10]: 0.78 µg/mL
- In vitro Sensitivity Test H.pp M-1 [11]: 0.78 µg/mL
- In vitro Sensitivity Test S.au 209P [12]: 0.025 to 0.05 µg/mL
- In vitro Sensitivity Test H.pg S-1 [13]: 0.39 µg/mL

SMILES: CNC[C@@]12CCC[C@@H]1CN(c1c(F)cc3c(=O)c(C(=O)O)cn(C4CC4)c3c1Cl)C2.Cl (relative stereo) [I-11, 7-[(1R*,5S*)-1-methylaminomethyl-3-azabicyclo[3.3.0]octan-3-yl]-1-cyclopropyl-8-chloro-6-fluoro-1,4-dihydro-4-oxo-3-quinolinecarboxylic acid hydrochloride]
- antimicrobial activity compared with ERFX [1]: nearly equal potency to ERFX

SMILES: Cl.N[C@H]1CC[C@H]2CN(c3c(F)cc4c(=O)c(C(=O)O)cn(C5CC5)c4c3F)C[C@H]21 (relative stereo) [I-12]
- antimicrobial activity compared with ERFX [1]: two times more effective than ERFX
- complete inihibition of the lesions in air sac at a concentration of ([1]; oral administration, MG-infected chicken): about 3.13 mg/kg
- In vitro Sensitivity Test MG S6 [2]: 0.00313 µg/mL
- In vitro Sensitivity Test Mh ST-11 [3]: <0.00625 µg/mL
- In vitro Sensitivity Test Str.sp SNO6119 [4]: 0.78 µg/mL
- In vitro Sensitivity Test P.pis No. 2 [5]: 0.39 µg/mL
- In vitro Sensitivity Test B.br ABU-1 [6]: 0.39 µg/mL
- In vitro Sensitivity Test E.coli JC-2 [9]: 0.1 µg/mL
- In vitro Sensitivity Test S.typhi 13311 [10]: 0.1 µg/mL
- In vitro Sensitivity Test H.pp M-1 [11]: 0.2 µg/mL
- In vitro Sensitivity Test S.au 209P [12]: 0.1 µg/mL

SMILES: CCn1cc(C(=O)O)c(=O)c2cc(F)c(N3C[C@H]4CCC[C@@]4(CNC)C3)c(F)c21.Cl (relative stereo) [I-19, 7-[(1R*,5S*)-1-methylaminomethyl-3-azabicyclo[3.3.0]octan-3-yl]-1-ethyl-6,8-difluoro-1,4-dihydro-4-oxo-3-quinolinecarboxylic acid hydrochloride]
- Number of infected fowl/Number of fowl tested (TS-resistant MG; bait 31.3 ppm/Day): 1/7
- Number of infected fowl/Number of fowl tested (TS-resistant MG; bait 62.5 ppm/Day): 0/7
- Number of infected fowl/Number of fowl tested (TS-resistant MG; bait 125 ppm/Day): 0/7
- Number of infected fowl/Number of fowl tested ([1]; oral 1.56 mg/kg): 3/5
- Number of infected fowl/Number of fowl tested ([1]; oral 3.13 mg/kg): 3/5
- Number of infected fowl/Number of fowl tested ([1]; oral 6.25 mg/kg): 1/5
- In vitro Sensitivity Test MG S6 [2]: 0.00625 µg/mL
- In vitro Sensitivity Test Mh ST-11 [3]: 0.39 µg/mL
- In vitro Sensitivity Test Str.sp SNO6119 [4]: 1.56 µg/mL
- In vitro Sensitivity Test P.pis No. 2 [5]: 1.56 µg/mL
- In vitro Sensitivity Test E.coli JC-2 [9]: 0.39 µg/mL
- In vitro Sensitivity Test S.typhi 13311 [10]: 0.78 µg/mL
- In vitro Sensitivity Test H.pp M-1 [11]: 0.78 µg/mL
- In vitro Sensitivity Test S.au 209P [12]: 0.05 µg/mL

SMILES: O=C(O)c1cn(C2CC2)c2c(F)c(N3CC4CCCC(=O)C4C3)c(F)cc2c1=O (stereo not shown) [I-4]
- Infectious index Left air sack + [1, 18]: 1
- Infectious index Left air sack ++ [1, 18]: 0
- Infectious index Left air sack +++ [1, 18]: 0
- Infectious index Left air sack - [1, 18]: 3
- Infectious index Right air sack + [1, 18]: 1
- Infectious index Right air sack ++ [1, 18]: 1
- Infectious index Right air sack +++ [1, 18]: 0
- Infectious index Right air sack - [1, 18]: 2
- Infectious index Left air sack + [1, 19]: 0
- Infectious index Left air sack ++ [1, 19]: 0
- Infectious index Left air sack +++ [1, 19]: 0
- Infectious index Left air sack - [1, 19]: 5
- Infectious index Right air sack + [1, 19]: 0
- Infectious index Right air sack ++ [1, 19]: 0
- Infectious index Right air sack +++ [1, 19]: 0
- Infectious index Right air sack - [1, 19]: 5
- Infectious index Left air sack + [1, 20]: 0
- Infectious index Left air sack ++ [1, 20]: 0
- Infectious index Left air sack +++ [1, 20]: 0
- Infectious index Left air sack - [1, 20]: 5
- Infectious index Right air sack + [1, 20]: 0
- Infectious index Right air sack ++ [1, 20]: 0
- Infectious index Right air sack +++ [1, 20]: 0
- Infectious index Right air sack - [1, 20]: 5
- Number of fowl having air sack lesions [1, 18]: 2
- Number of fowl having air sack lesions [1, 19]: 0
- Number of fowl having air sack lesions [1, 20]: 0
- In vitro Sensitivity Test MG S6 [2]: 0.05 µg/mL
- In vitro Sensitivity Test Mh ST-11 [3]: ≦0.025 µg/ml
- In vitro Sensitivity Test Str.sp SNO6119 [4]: 0.39 µg/mL
- In vitro Sensitivity Test P.pis No. 2 [5]: 6.25 µg/mL
- In vitro Sensitivity Test E.coli JC-2 [9]: 0.2 µg/mL
- In vitro Sensitivity Test S.typhi 13311 [10]: 0.39 µg/mL
- In vitro Sensitivity Test H.pp M-1 [11]: 0.2 µg/mL
- In vitro Sensitivity Test S.au 209P [12]: 0.05 µg/mL
